Measurements published in patent publication US7776883B2, “Quinolin-4-ones as inhibitors of retroviral integrase for the treatment of HIV, AIDS and AIDS related complex (ARC)” (The United States of America as represented by the …, priority 2004, dated 2010).

How the values were obtained:
HIV-1, IIIB strain = experiment: Inhibition of HIV-1-induced cytopathicity in acutely infected MT-4 cells (MTT method); format: cell-based; settings: Human immunodeficiency virus 1, IIIB, MT4, 96 h, 4-day incubation, read-out: 50% effective concentration value (EC50)
Method: Several of the compounds disclosed herein were tested for their ability to inhibit HIV cell multiplication. The compounds were solubilized in dimethyl sulfoxide at 200 mM and then diluted into culture medium. MT-4, C8166, H9/IIIB cells were grown at 37° C. in a 5% CO2 atmosphere in RPMI 1640 medium, supplemented with 10% fetal calf serum (FCS), 100 IU/mL penicillin G and 100 μg/mL streptomycin. Cell cultures were checked periodically for the absence of mycoplasma contamination with a MycoTect Kit (Gibco). Human immunodeficiency viruses type-1 (HIV-1, IIIB strain) were obtained from supernatants of persistently infected H9/IIIB. HIV-1 stock solutions had titres of 4.5×10^6 50% cell culture infectious dose (CCID50)/mL. Titration of HIV-1 was performed in C8166 cells by the standard limiting dilution method (dilution 1:2, four replica wells/dilution) in 96-well plates. The infectious virus titer was determined by light microscope scoring of cytopathicity after 4 days of incubation and the virus titers were expressed as CCID50/mL.
Activity of the compounds against HIV-1 multiplication in acutely infected cells was based on the inhibition of virus-induced cytopathicity in MT-4 cells. Briefly, 50 μL of culture medium containing 1×10^4 cells were added to each well of flat-bottom microtiter trays containing 50 μL of culture medium with or without various concentrations of the test compounds. Then 20 μL of an HIV-1 suspension containing 100 CCID50 was added. After a 4-day incubation at 37° C., the number of viable cells was determined by the 3-(4,5-dimethylthiazol-[…])-2,5-diphenyltetrazolium bromide (MTT) method (Pauwels, R.; Balzarini, J.; Baba, M.; Snoeck, R.; Schols, D.; Herdewijn, P.; Desmyster, J.; De Clercq, E. J. Virol. Methods 1988, 20, 309-321). Cytotoxicity of the compounds was evaluated in parallel with their antiviral activity, and was based on the viability of mock-infected cells, as monitored by the MTT method.

Compound | EC50 (HIV-1, IIIB strain) [µM] | melting point [°C]
CCOC(=O)C(=O)CC(=O)c1cn(Cc2ccc(F)cc2)c2ccccc2c1=O [RDS1624, 4-[1-(4-fluorophenyl)methyl-1,4-dihydro-4-oxoquinolin-3-yl]-2,4-dioxobutanoic acid ethyl ester] | 3.5 | 
CCOC(=O)C(=O)CC(=O)c1cn(Cc2ccc(F)cc2)c2ccc(Cl)cc2c1=O [RDS1755] | 5 | 
O=C(O)C(=O)CC(=O)c1cn(Cc2ccc(F)cc2)c2ccccc2c1=O [RDS1625, 4-[1-(4-fluorophenyl)methyl-1,4-dihydro-4-oxoquinolin-3-yl]-2,4-dioxobutanoic acid] | 40 | 207 to 209
O=C(O)C(=O)CC(=O)c1cn(Cc2ccc([N+](=O)[O-])cc2)c2ccccc2c1=O [RDS2018, 4-[1-(4-Nitrophenyl)methyl-1,4-dihydro-4-oxoquinolin-3-yl]-2,4-dioxobutanoic acid] |  | 230 to 232
O=C(O)C(=O)CC(=O)c1cn(Cc2ccc(F)cc2)c2cc(Cl)c(Cl)cc2c1=O |  | 175 to 177
CCOC(=O)C(=O)CC(=O)c1cn(Cc2ccc([N+](=O)[O-])cc2)c2ccccc2c1=O [RDS2017, 4-[1-(4-Nitrophenyl)methyl-1,4-dihydro-4-oxoquinolin-3-yl]-2,4-dioxobutanoic acid ethyl ester] |  | 175 to 176
O=C(O)C(=O)CC(=O)c1cn(Cc2ccc3ccccc3c2)c2ccccc2c1=O [RDS1975, 4-[1-(2-Naphthyl)methyl-1,4-dihydro-4-oxoquinolin-3-yl]-2,4-dioxobutanoic acid] |  | 212 to 213
CCOC(=O)C(=O)CC(=O)c1cn(Cc2cccc(F)c2)c2ccccc2c1=O [RDS1986, 4-[1-(3-Fluorophenyl)methyl-1,4-dihydro-4-oxoquinolin-3-yl]-2,4-dioxobutanoic acid ethyl ester] |  | 174 to 175
CCOC(=O)C(=O)CC(=O)c1cn(Cc2ccc(F)cc2)c2c(Cl)cccc2c1=O |  | 164 to 165
